{"source": "patent US12611415B2", "about": "“Methods and compounds for treatment of metabolic disease” (Monash University, priority 2019, dated 2026)", "type_in_all_cases": "in vivo, mouse", "key": {"[1]": {"test_system": "C57BL6/J mice fed high fat diet (HFD)", "experiment": "Celecoxib / Compound I-1 treatment study in HFD fed mice", "description": "All animal work was conducted per Australian National Health and Medical Research Council (NHMRC) guidelines for the care and use of animals in research. Seven-week-old male Sprague Dawley rats or C57BL6/J mice were randomized and housed in groups of 2-5 in a temperature-controlled room under specific-pathogen free (SPF) or standard animal housing conditions with free access to food and water.\nIn the observational studies, mice or rats were fed semi-purified normal chow diet (control fat diet (CFD), 7% w/w fat and 16% total energy from fat, AIN93G, Specialty Feeds Pty Ltd, Australia) or high fat diet (HFD, 36% w/w fat and 59% total energy from fat, SF03-002, Specialty Feeds Pty Ltd, Australia) for a total duration of 6, 15, 23 or 32 weeks to evaluate changes to mesenteric lymph composition, structure and function over time during the progression of obesity. Mice or rats were fed with the same CFD or HFD for 6-10 weeks prior to collection of mesenteric lymph for in vitro incubation with lymphatic endothelial cells (LECs) and adipocytes, respectively.\nA “prevention study” and a “treatment study” were also conducted. Both the prevention and treatment studies included mice fed the CFD or HFD for 15 or 23 weeks, as described above. In the prevention study, an additional group of mice was fed the HFD supplemented with celecoxib at a dose equivalent to ˜29 mg/kg/day (based on average food intake) for 15 weeks. In the treatment study, animals were fed the HFD for 15 weeks followed by a HFD supplemented with celecoxib (˜29 mg/kg/day) or Compound I-1 (˜9 mg/kg/day celecoxib equivalents) for 7-8 weeks. The celecoxib was purchased from MedChemExpress (NJ, USA), and Compound I-1 was synthesized consistent with the description in WO2016/023082.\nAcross all studies, body mass was measured once per week. Oral glucose tolerance tests (OGTTs) were conducted at 5, 14, 22 and/or 31 weeks after commencing feeding mice the HFD or CFD. To perform OGTTs, mice were routinely handled for 2 weeks prior to minimize the stress caused by handling during the experiment. On the day of the OGTT, mice were fasted for 4 h (7-11 am) but still had free access to water. Glucose (50 mg D-glucose in 200 μL water) was administered via oral gavage and a drop of blood was collected from the tail tip at fixed time points (0, 15, 30, 60, 90 and 120 mins). Blood glucose was measured using a One-touch glucometer (AccuCheck Performa, Roche, Switzerland). Plasma was separated from the remaining blood sample via centrifugation and reserved for measurement of plasma insulin concentrations via ELISA as described above.\nAt the end of all experiments, mice were euthanised via cervical dislocation and rats were euthanised via intracardiac injection of sodium pentobarbitone (100 mg). Organs and tissues, including the lymph nodes and adipose tissue depots, were carefully collected. The mass of adipose tissue depots was weighed to determine adiposity.\nMesenteric adipose tissue samples (for lymphatic capillary and mesenteric lymphatic vessel analysis) and small intestine samples (for villi and lacteal analysis) were collected with fine forceps. Whole mount adipose tissue was cut into ˜3 mm×3 mm×2 mm pieces and whole mount small intestine was cut into 1.5 cm segments. Immediately after collection, the tissue samples were fixed in 4% paraformaldehyde in PBS at 4° C. overnight. Fat associated lymph clusters (FALCs) were identified by intraperitoneal injection of FluoSphere Carboxylate-Modified Nanospheres, 100 nm, yellow-green (505/515, Invitrogen, CA, USA) and collected with fine forceps under a Zeiss Stemi 2000-CS surgical microscope (2.5× magnification) with a fluorescence adaptor (Nightsea, MA, USA). The fluorescent light was filtered through a cyan color light filter (Electron Microscopy Science, PA, USA) to visualize the nanospheres and thus the FALCs. FALCs were cleaned of adipose tissue after collected and placed whole in 4% paraformaldehyde in PBS at 4° C. overnight. […]"}, "[2]": {"test_system": "mice with HFD-induced obesity", "experiment": "Dose comparison study of Compound I-1 and celecoxib in HFD mice (FIG. 7)", "description": "Timelines and treatment groups are shown in panel a. (b-c) n=8 (CFD), 8 (CP90), 4, (CP30), 7 (CP10), 4 (Cele30), 5 (Cele 10), 6 (Cele3) and 4 (HFD). (c-d) n=7 (CFD), 7 (CP90), 5, (CP30), 7 (CP10), 5 (Cele30), 7 (Cele 10), 6 (Cele3) and 7 (HFD). (e-f) n=12 (CFD), 8 (CP90), 6 (CP30), 7 (CP10), 7 (Cele30), 8 (Cele 10), and 6 (Cele3), 8 (HFD). (g-h) n=10 (CFD), 8 (CP90), 6 (CP30), 7 (CP10), 6 (Cele30), 8 (Cele 10), and 7 (Cele3), 11 (HFD). (i-j) n=4 (CFD), 7 (CP 90), 7 (CP 10), 7 (Cele 10) and 6 (Cele 3). Statistical differences from one-way ANOVA, compared to CFD (baseline). *p<0.05, **p<0.01, ***p<0.005, ****p<0.001."}, "[3]": {"test_system": "mice with chronic HFD-induced obesity", "experiment": "Chronic HFD-induced obesity model, Compound I-1 versus CFD switch (FIG. 8)", "description": "Details regarding treatment times and controls are shown in panel (a). Panels b-e show lymph “leakage” into surrounding VAT due to HFD-induced remodelling of the mesenteric lymphatics, as measured by intramucosal injection of Evans blue dye and lymphangiography. (f-g) n=2 (CFD), 7 (HFD), 8 (Cele-pro (CP30)) and 5 (CFD switch)."}, "[4]": {"test_system": "mice reintroduced to a high-fat diet", "experiment": "HFD rechallenge study (FIG. 9)", "conditions": "Cele-pro (CP30)", "description": "Details regarding treatment times and controls are shown in panel (a). Panels b-e show whole mount immunofluorescence images of the mesenteric afferent lymph vessels and cell nuclei in VAT of several mouse groups. Panels f-i show lymph “leakage” into surrounding VAT due to HFD-induced remodelling of the mesenteric lymphatics, as measured by intramucosal injection of Evans blue dye and lymphangiography. (j-m) n=5 (CFD), 5 (HFD), 6 (HFD rechallenge-Cele-pro (CP30)) and 5-7 (HFD rechallenge-CFD switch). (a-d) n=5 (CFD), 6 (HFD), 8 (HFD rechallenge-Cele-Pro (CP30)) and 7 (HFD rechallenge-CFD switch)."}, "[5]": {"conditions": "Compound I-1 ~9 mg/kg/day celecoxib equivalents, celecoxib at a 3.2-fold higher dose"}, "[6]": {"conditions": "HFD 15 weeks, then 7 weeks drug in HFD feed"}, "[7]": {"conditions": "HFD 15 weeks, then 7 weeks drug in HFD feed, Compound I-1 ~9 mg/kg/day celecoxib equivalents, celecoxib ~29 mg/kg/day"}, "[8]": {"conditions": "Compound I-1 at doses as low as 10 mg/kg (~3 mg/kg celecoxib), ~10-fold lower dose relative to celecoxib"}, "[9]": {"conditions": "various doses of Compound I-1 versus higher corresponding doses of celecoxib"}, "[10]": {"conditions": "chronic HFD-induced obesity models, Cele-pro (CP30)"}}, "note": "Entries after “also recorded” stand apart in the source; their conditions may differ.", "data": [{"smiles": "CCCCCCCCCCCCCCCC(=O)OCC(COC(=O)CCCCCCCCCCCCCCC)OC(=O)CCCCCCCCC(=O)Oc1cc(C)cc(C)c1C(C)(C)CC(=O)NS(=O)(=O)c1ccc(-n2nc(C(F)(F)F)cc2-c2ccc(C)cc2)cc1", "note": "[Compound I-1]", "values": [{"measurement": "body weight gain induced by HFD (obesity)", "setting": "[1]; [5]", "value": "significantly reduced; also recorded: reverses, more effectively"}, {"measurement": "hyperinsulinemia in the fasted state and after glucose challenge (insulin resistance)", "setting": "[1]; [5]", "value": "significantly improved; also recorded: reverses, more effectively"}, {"measurement": "oral glucose tolerance", "setting": "[1]; [5]", "value": "significantly improved"}, {"measurement": "SAT and VAT accumulation", "setting": "[1]; Compound I-1 ~9 mg/kg/day celecoxib equivalents, compared with celecoxib at a 3.2-fold higher dose", "value": "more significantly reduced"}, {"measurement": "cholesterol levels in mesenteric lymph", "setting": "[1]; [6]", "value": "decreased"}, {"measurement": "lymph lipid profile (lipidomic analysis of mesenteric lymph) / lymph composition", "setting": "[1]; [6]", "value": "shift in the lymph lipid profile from a HFD-like toward a more CFD-like profile; also recorded: reverses, more effectively"}, {"measurement": "total concentrations of triglyceride, phospholipid and glucose in mesenteric lymph", "setting": "[1]; [6]", "value": "trends toward a decrease"}, {"measurement": "total free fatty acid (FFA) in mesenteric lymph", "setting": "[1]; [6]", "value": "significantly increased"}, {"measurement": "immune cell numbers in mesenteric lymph nodes reversed to levels similar to CFD mice", "setting": "[1]; [7]", "value": "successfully reversed"}, {"measurement": "immune cells in the mesenteric lymph fluid", "setting": "[1]; [7]", "value": "reduced"}, {"measurement": "lymph leakage into VAT", "setting": "[1]; [7]", "value": "reversed; also recorded: reverses, more effectively"}, {"measurement": "mesenteric lymph levels of PGE2", "setting": "[1]; [7]", "value": "reduced"}, {"measurement": "mesenteric lymph levels of VEGF-C", "setting": "[1]; [7]", "value": "below the limit of quantification; also recorded: reverses, more effectively"}, {"measurement": "mesenteric lymphatic branching", "setting": "[1]; [7]", "value": "reversed; also recorded: reverses, more effectively"}, {"measurement": "mesenteric lymphatic dysfunction, visceral obesity, inflammation, glucose intolerance, and insulin resistance associated with obesity", "setting": "[1]; compared with non-lymph-targeted celecoxib", "value": "reverse, more effectively"}, {"measurement": "VAT lymph leakage", "setting": "[2]; [8]", "value": "superior; also recorded: reverses, more effectively"}, {"measurement": "restoration of glycaemic control", "setting": "[2]; [8]", "value": "superior"}, {"measurement": "reversal of VAT lymphangiogenesis (lymph vessel branching)", "setting": "[2]; [8]", "value": "superior; also recorded: reverses, more effectively"}, {"measurement": "reducing fasting plasma triglycerides", "setting": "[2]; compared with a 3-fold higher dose of celecoxib", "value": "superior"}, {"measurement": "HFD-induced obesity, weight", "setting": "[2]; [9]", "value": "reverses, more effectively"}, {"measurement": "changes to lymph composition", "setting": "[2]; [9]", "value": "reverses, more effectively"}, {"measurement": "insulin resistance", "setting": "[2]; [9]", "value": "reverses, more effectively"}, {"measurement": "oral glucose tolerance", "setting": "[2]; [9]", "value": "reverses, more effectively"}, {"measurement": "effects on mice on a high-fat diet relative to animals switched to a chow-fat diet", "setting": "[3]; Cele-pro (CP30) versus CFD switch", "value": "comparable"}, {"measurement": "VAT inflammation", "setting": "[3]; [10]", "value": "reverses"}, {"measurement": "insulin resistance", "setting": "[3]; [10]", "value": "reverses"}, {"measurement": "lymphatic dysfunction", "setting": "[3]; [10]", "value": "reverses"}, {"measurement": "beneficial effects after reintroducing the mice to a high-fat diet (HFD rechallenge)", "setting": "[4]", "value": "persist"}]}]}
